According to US20080268092A1, “Capsaicin Nutritional Supplement” (priority 2004, published 2008):

Key:
[1] = cited from earlier work
[2] = cited from earlier work; remark: listed apart in the source
[3] = Personal experience of capsaicin use; format: in vivo; conditions: humans
[4] = animal models; cited from earlier work

Structure (SMILES)	mean half-life in plasma ([1]; healthy individuals)	blood-brain barrier passage ([1]; in vivo)	solubility in water [2]	effects of use on energy, exercise capacity, endurance, mood, appetite, alertness [3]	endurance capacity [4]	lipolysis [4]
Cn1c(=O)c2c(ncn2C)n(C)c1=O [caffeine]	about 5 hours	readily crosses the blood-brain barrier				
COc1cc(CNC(=O)CCCC/C=C/C(C)C)ccc1O [Capsaicin]			only slightly soluble in water	boosts energy, increases exercise capacity, increases endurance, improves mood, decreases appetite and increases alertness	increase endurance capacity	promote lipolysis
